Experiments:
[1] = tested on: Caco-2, Fibroblast, and HT29-MTX-E12 cells; test: Cytotoxicity by MTT cell viability; assay type: cell-based; conditions: 24 h incubation, cell line not split in table (Caco-2, Fibroblast, HT29-MTX-E12), highest usable concentration 3.25 mmolL^−1
Experimental: All cell culture studies were conducted in aseptic conditions. Incubation was maintained at an atmosphere of 37.0 °C, 5% CO2, and 95% relative humidity. The caco-2 cells were grown in complete Dulbecco’s modified Eagle’s medium (DMEM), which was prepared by adding 10% foetal bovine serum (FBS), 1% penicillin-streptomycin (P-S), and 1% non-essential amino acids (NEAA) to sterile DMEM. Cells were cultured in T-25 and T-75 tissue culture flasks, and the medium was exchanged every 3 days until 90% confluence was reached. Cells were detached and subcultured with 0.25% Trypsin-EDTA. The suspended cell concentration was determined by cell counting.
Cytotoxicity was measured by measuring cell viability using MTT. Then, 90% confluent cells were detached by 0.25% trypsin-EDTA, which were then counted and seeded into sterile 96-well plates. Caco-2 cells were seeded into 96-well plates at a density of 100,000 cells per well and incubated for 24 h prior to the experiment. Fibroblast cells were seeded into 96-well plates at a density of 10,000 cells per well and incubated for 24 h prior to the experiment. HT-29 cells were seeded into 96-well plates at a density of 10,000 cells per well and incubated for 24 h prior to the experiment. The supernatant in each well were discarded and the attached cells were washed using serum-free Fluorobite^TM DMEM twice to remove any phenol red. The peptide, at concentrations of 10 mgmL^−1, 1 mgmL^−1, 0.1 mgmL^−1, 0.01 mgmL^−1, 0.001 mgmL^−1, and 0.0001 mgmL^−1 were dissolved in serum-free Fluorobite^TM DMEM. The total volume of sample in each well used was 100 μL. The cells were incubated with the peptide for 24 h. Cells were also incubated with serum-free DMEM (positive control) and 2% Triton-X (negative control) for 24 h. The supernatant in each well was then discarded and washed using serum-free Fluorobite^TM DMEM. MTT (100 μL, 1.2 mmolL^−1) dissolved in Fluorobite^TM DMEM was then added to each well and incubated for 2 h for MTT conversion into formazan. The supernatant was then discarded, and the cells were washed using Fluorobite^TM DMEM to remove any residual MTT and formazan that were not attached to cellular mitochondria. Formazan was dissolved in dimethyl sulfoxide (DMSO) (50 μL), and the absorbance was measured on a microplate reader at a wavelength of 570 nm. Cell viability was expressed as a percentage of the positive control and calculated as follows (where Aexp is the absorbance at 570 nm of the experimental group, Aneg is the absorbance at 570 nm of the negative control, and Acon is the cell viability of the positive control): Cell viability = (Aexp − Aneg)/(Acon − Aneg).

Fibroblast cells = test: UV rescue of UVA-irradiated fibroblast cells (MTT); assay type: cell-based; conditions: for cell viability versus untreated groups (in words): UV rescue; for % Cell Viability (with UV): UVA 1 h, then peptide 0.0325 mmolL^−1, 24 h
Experimental: (§1) Fibroblast cells were seeded into 96-well plates at a density of 10,000 cells per well determined by cell counting. Cells were allowed to settle and attach for 24 h before the addition of peptides. The supernatant in each well was discarded, and the attached cells were washed using serum-free DMEM twice. One group of cells was exposed to UVA under a UV lamp for 1 h. A second group of cells was not exposed to UV irradiation. The supernatant was removed from each well of both groups and replaced with peptide (100 μL, 0.0325 mmolL^−1), which was then dissolved in Fluorobite^TM DMEM. Each plate, including 2 wells of both groups was also incubated with serum-free DMEM (positive control) and 2% Triton-X (negative control) for 24 h. The supernatant in each well of both groups was then discarded and the cells washed using PBS. MTT (100 μL, 6 mmolL^−1) that was dissolved in HBSS was then added to each well and incubated for 2 h for MTT conversion into formazan. The supernatant was then discarded, and the cells were washed using PBS to remove any residual MTT and formazan that were not attached to the cellular mitochondria. Formazan was dissolved in DMSO (50 μL), and the absorbance was measured on a microplate reader at a wavelength of 570 nm.

[2] = UV rescue of UVA-irradiated fibroblast cells (MTT); assay type: cell-based; conditions: peptide 0.0325 mmolL^−1, 24 h, no UV, mean ± SD, n = 6, read-out: % Cell Viability (no UV)
Experimental: as §1

[3] = tested on: γ-glutamyl transferase (GGT); assay type: in vitro ADME, equine; conditions: for % Degradation by GGT: horse, 100 μgmL^−1, pH 9
Experimental: Each compound and GSH (100 μgmL^−1, 0.0315 molL^−1) was added to each reaction vessel containing phosphate buffer solution (800 μL, pH 9.0). The reaction vessels were incubated at 37 °C with shaking for the entire duration of the experiment. Reaction was initiated by the addition of GGT enzyme solution (100 μL, 10 UmL^−1). […] The degradation rate of the novel compounds analysed by HPLC were compared with that of GSH. […] A GGT degradation less than 50% was considered resistance to GTT activity.

[4] = tested on: glutathione reductase (GR) and glutathione peroxidase (GPx); test: Glutathione reductase and glutathione peroxidase coupled assay (NADPH, 340 nm); assay type: biochemical, yeast (GR), bovine (GPx); conditions: for activity with GPx and GR enzymes (in words): qualitative analysis; for GT/GPx Activity > 50%: yes/no, more than 50% considered retaining GR and GPx activity
Experimental: The activity of GR can be measured by monitoring the rate of decrease in absorbance of its substrate, NADPH, which absorbs light of 340 nm in the presence of a second substrate, i.e., oxidised GSH. […] In the presence of peroxides, reduced GSH can be oxidised by the enzyme GPx while reducing the peroxide. […] The NADPH solution (10 μL, 5 mmolL^−1), GPx enzyme solution (10 μL, 0.25 UmL^−1), and GR enzyme solution (10 μL, 10 UmL^−1) were also added to the reaction mixture. The reaction was initiated by the addition of tBu-OOH (2 μL, 30 mmolL^−1), and the decrease in absorbance at 340 nm was recorded by a microplate reader every 10 secs for one minute. […] A GR and GPx activity more than 50% was considered as retaining GR and GPx activity.

[5] = tested on: glutathione S-transferase (GST); test: Glutathione S-transferase assay (CDNB conjugation, absorbance 340 nm); assay type: biochemical, equine; conditions: for activity/efficacy with GST enzyme (in words): qualitative analysis; for GST Activity > 50%: yes/no, compared to GSH, more than 50% considered retaining GST activity
Experimental: The degree of conjugation of GSH or novel compounds to a substrate catalysed by GST can be monitored […] by conjugation with the substrate 1-chloro-2,4-dinotrobenzene (CDNB) to a thiol group. Successful conjugation results in the formation of a S-DNB conjugate, which strongly absorbs at 340 nm.
A stock solution of GSH and novel compounds (0.0315 mmolL^−1) were prepared. GSH or novel compounds (26 µL) were added to a mixture of pH = 7.4 DPBS (170 µL), CDNB (2 µL, 100 mmolL^−1), and GST enzyme (2 µL, 25 UmL^−1) to initiate the reaction. The rate of increase in absorbance at 340 nm was monitored every minute over a 10 min period. The rate of increase in absorbance at 340 nm was calculated by the following equation (Equation (1)), where ΔA340 is the change in absorption at 340 nm per minute:(1) ΔA340=A340(final)–A340(initial)/t.
The rate of increase in absorption at 340 nm was correlated to the specific activity of GST using the following equation (Equation (2)):(2) ΔA340×V/εmM ×Venz=Specific activity of GST, where the extinction coefficient εmM for a 96-well plate of a path length of 0.5 cm is 5.3 mmolL^−1cm^−1; Venz is the volume of the GST enzyme sample used (2 µL); and V is the total volume used ([…]). […] A GST activity more than 50% was considered as retaining GST activity.

SMILES	IC50 ([1]; Homo sapiens)	cell viability versus untreated groups (in words) (Fibroblast cells)	% Cell Viability (with UV) (Fibroblast cells; mean ± SD, n = 6)	viability at 24 h, 0.0325 mmolL^−1 [2]	GGT degradation compared to GSH (in words) [3]	% Degradation by GGT [3]	activity with GPx and GR enzymes (in words) [4]	GT/GPx Activity > 50% [4]	activity/efficacy with GST enzyme (in words) [5]	GST Activity > 50% [5]	IC50 [1]	% Cell Viability (no UV) (Fibroblast cells; peptide 0.0325 mmolL^−1, 24 h, no UV, mean ± SD, n = 6)
CN(CC(=O)O)C(=O)[C@H](CS)NC(=O)CC[C@H](N)C(=O)O [Compound 1.65]	0.984 mM	significantly higher cell viability than the untreated groups	69.3 ± 26.6%	58.8%	did not show a decrease in degradation	122.2%	retention of activity	✔ (✔: yes)	loss of activity	X (X: no)		
N[C@@H](CCC(=O)N[C@@H](CS)C(=O)NCC(=O)O)C(=O)O [Compound 1.61]		significantly higher cell viability than the untreated groups	69.0 ± 0.6%			100%		✔ (✔: yes)		✔ (✔: yes)	> 3.25 mM	74.3 ± 2.0%
N[C@@H](CCC(=O)N[C@H](CS)C(=O)NCC(=O)O)C(=O)O [Compound 1.62]	> 3.25 mM	significantly higher cell viability than the untreated groups	70.8 ± 5.7%	112 ± 5.5%	less than half the rate of GGT degradation	82.3%	loss of activity	X (X: no)	lost detoxification efficacy	X (X: no)		
N[C@H](CCC(=O)N[C@H](CS)C(=O)NCC(=O)O)C(=O)O [Compound 1.64]	> 3.25 mM	significantly higher cell viability than the untreated groups	98.5 ± 7.1%	128 ± 7.9%	less than half the rate of GGT degradation	60.2%	loss of activity	X (X: no)	retained the detoxification effectiveness	✔ (✔: yes)		
CN[C@@H](CCC(=O)N[C@@H](CS)C(=O)NCC(=O)O)C(=O)O [Compound 1.71]		significantly higher cell viability than the untreated groups	97.0 ± 5.5%	79.5 ± 10.2%		11.7%	retention of activity	✔ (✔: yes)	loss of activity	X (X: no)		
N[C@H](CCC(=O)N[C@@H](CS)C(=O)NCC(=O)O)C(=O)O [Compound 1.63]	> 3.25 mM	significantly higher cell viability than the untreated groups	101.1 ± 5.2%	137 ± 16.1%	less than half the rate of GGT degradation	72.7%	retained activity	✔ (✔: yes)	lost detoxification efficacy	X (X: no)		
